According to ChEMBL document CHEMBL5360575, “Broad-spectrum coronavirus 3C-like protease peptidomimetic inhibitors effectively block SARS-CoV-2 replication in cells: Design, synthesis, biological evaluation, and X-ray structure determination” (Eur J Med Chem, 2023):

Key:
[1] = system: BEAS-2B; assay: Cytotoxicity against human BEAS-2B cells assessed as reduction in cell viability; type: toxicity, cell-based
[2] = biological target: T1, Replicase polyprotein 1ab (Severe acute respiratory syndrome coronavirus 2, UniProt P0DTD1); assay: Inhibition of SARS-CoV-2 3CL protease expressed in Escherichia coli BL21(DE3) cells using DABCYL-KTSAVLQSGFRKM-EDANS as substrate preincubated for 30 mins followed by substrate addition and measured after 15 mins by FRET assay
[3] = Inhibition of MERS 3CL protease expressed in Escherichia coli BL21(DE3) cells using DABCYL-KTSAVLQSGFRKM-EDANS as substrate preincubated for 30 mins followed by substrate addition and measured after 30 mins by FRET assay; parameters: species or system Middle East respiratory syndrome-related coronavirus
[4] = system: SARS-CoV-2; assay: microbe, parasite or virus in culture; details: Severe acute respiratory syndrome coronavirus 2, […], Vero C1008
[5] = system: SARS-CoV-2; assay: microbe, parasite or virus in culture; details: Severe acute respiratory syndrome coronavirus 2, […], Vero C1008, 72 h
[6] = system: Middle East respiratory syndrome-related coronavirus; assay: microbe, parasite or virus in culture; details: Vero C1008, 96 h
[7] = system: Human coronavirus 229E; assay: microbe, parasite or virus in culture; details: BEAS-2B
[8] = Selectivity index, ratio of CC50 for human BEAS2B cells to EC50 for antiviral activity against HCoV229E infected in BEAS-2B cells; type: toxicity, cell-based; details: read-out: Ratio CC50/EC50
[9] = system: SARS-CoV-2; details: Severe acute respiratory syndrome coronavirus 2, […], Calu-3, 48 h
[10] = biological target: T1, Replicase polyprotein 1ab; assay: Covalent binding affinity to SARS-CoV-2 3CL protease expressed in Escherichia coli BL21(DE3) cells after 30 mins by FRET assay
[11] = biological target: Replicase polyprotein 1ab (Severe acute respiratory syndrome coronavirus 2) (UniProt P0DTD1); details: dose 40.0 µM, time 30.0 min

SMILES	CC50 [1] [µM]	IC50 [2] [µM]	IC50 [3] [nM]	EC50 [4] [µM]	EC50 [5] [µM]	EC50 [6] [µM]	EC50 [7] [µM]	selectivity ratio [8]	EC50 [9] [µM]	Ki [10] [µM]	ΔTm [11] [°C]
CC(C)C[C@H](NC(=O)OCc1ccccc1)C(=O)N[C@@H](C[C@@H]1CCNC1=O)C(O)S(=O)(=O)O (stereo not given in full)	> 100	–	–	–	–	–	–	–	–	–	–
CO[C@H]1C[C@@H](C(=O)N[C@H](C=O)C[C@@H]2CCNC2=O)N(C(=O)[C@@H](NC(=O)OC(C)(C)C)C(C)C)C1	3.6	0.00024	0.007	23.6	8.7	0.58	> 3.6	–	–	–	–
CC(C)[C@H](NC(=O)OC(C)(C)C)C(=O)N1CCCC[C@H]1C(=O)N[C@H](C=O)C[C@@H]1CCNC1=O	–	3.35	–	> 100	5.83	–	–	–	–	–	–
CC(C)C[C@H](NC(=O)[C@@H](NC(=O)OC(C)(C)C)C(C)C)C(=O)N[C@H](C=O)C[C@@H]1CCNC1=O	70.5	0.0007	0.02	40.1	3.6	1.58	2.3	> 30.1	–	–	–
CC(C)[C@H](NC(=O)OC(C)(C)C)C(=O)N1CCC[C@H]1C(=O)N[C@H](C=O)C[C@@H]1CCNC1=O	17.9	0.00623	0.02	22.5	16	4.56	> 17.9	–	–	–	–
CC(C)[C@H](NC(=O)OC(C)(C)C)C(=O)N1C[C@@H](C)C[C@H]1C(=O)N[C@H](C=O)C[C@@H]1CCNC1=O	–	0.00047	2.33	47.2	16.9	–	–	–	–	–	–
CC(C)[C@H](NC(=O)OC(C)(C)C)C(=O)N1C[C@@H]2CCC[C@@H]2[C@H]1C(=O)N[C@H](C=O)C[C@@H]1CCNC1=O	28.4	0.005	143	5.3	0.21	–	0.24	–	0.449	0.0032	4
C[C@H](OC(C)(C)C)[C@H](NC(=O)OC(C)(C)C)C(=O)N1CCC[C@H]1C(=O)N[C@H](C=O)C[C@@H]1CCNC1=O	–	0.0053	0.022	22.9	1.86	–	–	–	–	–	–
CC(C)[C@H](NC(=O)OC(C)(C)C)C(=O)N1C[C@H](OC(C)(C)C)C[C@H]1C(=O)N[C@H](C=O)C[C@@H]1CCNC1=O	48.2	0.0025	26	33.4	3.4	33.6	> 48.2	–	–	–	–
